Measurements as given in the supplement of paper PMC8671470.

tested on: myeloid leukemia patient primary cells Pat.9; test: cell viability (% survival relative to DMSO control); higher = less cytotoxic; settings: 10 nM; 72 h
Method in brief: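 Thawed mononuclear cells from AML or CML patients were purified on Ficoll and cultured for 72 h in RPMI 1640 with 10% FBS, at 10,000 cells/well, on 384-well plates carrying 70 pre-printed compounds at 1–10,000 nM in five tenfold steps, in duplicate. Viability came from CellTiter-Glo, normalised against DMSO and against 10 μM proteasome inhibitor. Any area under the curve given was derived from log-logistic curve fits in the drc and PharmacoGx R packages, and these fits had four parameters.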

First: O=C(/C=C/c1cccnc1)NCCCCC1CCN(C(=O)c2ccccc2)CC1 [Daporinad]
Second: Nc1ccn([C@@H]2O[C@H](CO)[C@@H](O)C2(F)F)c(=O)n1 [Gemcitabine]
The cell viability of the first is lower: less than 0% for the first, 6.11% for the second.

First: Clc1cc(Cl)c(OCC#CI)cc1Cl [Haloprogin]
Second: O=c1[nH]c(=O)n([C@H]2C[C@H](O)[C@@H](CO)O2)cc1I [Idoxuridine]
The cell viability of the first is higher: 62.4% for the first, 59.9% for the second.

same assay, conditions: 100 nM; 72 h

Compared with `O=C(Cc1cccc(OC(F)(F)F)c1)Nc1ccc(CCCCc2nnc(NC(=O)Cc3ccccn3)s2)nn1` [CB-839], `O=C(/C=C/c1cccnc1)NCCCCC1CCN(C(=O)c2ccccc2)CC1` [Daporinad] is lower in cell viability: 1.99% for the first, 0.492% for the second.

Compared with `Nc1ccn([C@@H]2O[C@H](CO)[C@@H](O)C2(F)F)c(=O)n1` [Gemcitabine], `O=c1[nH]c(=O)n([C@H]2C[C@H](O)[C@@H](CO)O2)cc1I` [Idoxuridine] is higher in cell viability: 56.7% for the first, 68.1% for the second.

`Clc1cc(Cl)c(OCC#CI)cc1Cl` [Haloprogin] gave a cell viability of 43.4%.

same assay, conditions: 1000 nM; 72 h

Going from `O=C(Cc1cccc(OC(F)(F)F)c1)Nc1ccc(CCCCc2nnc(NC(=O)Cc3ccccn3)s2)nn1` [CB-839] to `O=C(/C=C/c1cccnc1)NCCCCC1CCN(C(=O)c2ccccc2)CC1` [Daporinad], the cell viability falls from 7.13% to 0.773%.

Compared with `Nc1ccn([C@@H]2O[C@H](CO)[C@@H](O)C2(F)F)c(=O)n1` [Gemcitabine], `O=c1[nH]c(=O)n([C@H]2C[C@H](O)[C@@H](CO)O2)cc1I` [Idoxuridine] is higher in cell viability: 15.4% for the first, 35.5% for the second.

With `Clc1cc(Cl)c(OCC#CI)cc1Cl` [Haloprogin] the cell viability was 3.45%.

same assay, conditions: 10000 nM; 72 h

First: O=C(Cc1cccc(OC(F)(F)F)c1)Nc1ccc(CCCCc2nnc(NC(=O)Cc3ccccn3)s2)nn1 [CB-839]
Second: O=C(/C=C/c1cccnc1)NCCCCC1CCN(C(=O)c2ccccc2)CC1 [Daporinad]
The cell viability of the first is higher: 14.1% for the first, 0.773% for the second.

First: Nc1ccn([C@@H]2O[C@H](CO)[C@@H](O)C2(F)F)c(=O)n1 [Gemcitabine]
Second: O=c1[nH]c(=O)n([C@H]2C[C@H](O)[C@@H](CO)O2)cc1I [Idoxuridine]
The cell viability of the first is lower: 6.78% for the first, 70.3% for the second.

`Clc1cc(Cl)c(OCC#CI)cc1Cl` [Haloprogin] showed a cell viability of 3.68%.

tested on: BV-173; test: cell viability (% survival relative to DMSO control, bortezomib = 0%); higher = less cytotoxic; settings: 1 nM; 72 h
Method in brief: (§1)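 Fifteen myeloid leukaemia cell lines (10 AML, 5 CML) were seeded at a density titrated to the linear growth range into 384-well plates pre-printed with compounds at 1, 10, 100, 1000 or 10000 nM in duplicate. Plates were incubated for 72 h at 37 °C with 5% CO2. Viability was then read by CellTiter-Glo luminescence. Each value is percent survival averaged over the duplicates, with vehicle set to 100% and a 10 µM positive control to 0%.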

Going from `O=C(Cc1cccc(OC(F)(F)F)c1)Nc1ccc(CCCCc2nnc(NC(=O)Cc3ccccn3)s2)nn1` [CB-839] to `O=C(/C=C/c1cccnc1)NCCCCC1CCN(C(=O)c2ccccc2)CC1` [Daporinad], the cell viability falls from 133% to 15.7%.

First: Nc1ccn([C@@H]2O[C@H](CO)[C@@H](O)C2(F)F)c(=O)n1 [Gemcitabine]
Second: O=c1[nH]c(=O)n([C@H]2C[C@H](O)[C@@H](CO)O2)cc1I [Idoxuridine]
The cell viability of the first is lower: 83.3% for the first, 102% for the second.

Compound `Clc1cc(Cl)c(OCC#CI)cc1Cl` [Haloprogin] has a cell viability of 120%.

same assay, conditions: 10 nM; 72 h

Going from `O=C(Cc1cccc(OC(F)(F)F)c1)Nc1ccc(CCCCc2nnc(NC(=O)Cc3ccccn3)s2)nn1` [CB-839] to `O=C(/C=C/c1cccnc1)NCCCCC1CCN(C(=O)c2ccccc2)CC1` [Daporinad], the cell viability falls from 82.2% to 1.15%.

Compared with `Nc1ccn([C@@H]2O[C@H](CO)[C@@H](O)C2(F)F)c(=O)n1` [Gemcitabine], `O=c1[nH]c(=O)n([C@H]2C[C@H](O)[C@@H](CO)O2)cc1I` [Idoxuridine] is higher in cell viability: -0.488% for the first, 86.7% for the second.

`Clc1cc(Cl)c(OCC#CI)cc1Cl` [Haloprogin] was tested, and the cell viability was 93%.

same assay, conditions: 100 nM; 72 h

Compared with `O=C(Cc1cccc(OC(F)(F)F)c1)Nc1ccc(CCCCc2nnc(NC(=O)Cc3ccccn3)s2)nn1` [CB-839], `O=C(/C=C/c1cccnc1)NCCCCC1CCN(C(=O)c2ccccc2)CC1` [Daporinad] is lower in cell viability: 53.7% for the first, 0.0754% for the second.

First: Nc1ccn([C@@H]2O[C@H](CO)[C@@H](O)C2(F)F)c(=O)n1 [Gemcitabine]
Second: O=c1[nH]c(=O)n([C@H]2C[C@H](O)[C@@H](CO)O2)cc1I [Idoxuridine]
The cell viability of the first is lower: 0.0466% for the first, 97.6% for the second.

For `Clc1cc(Cl)c(OCC#CI)cc1Cl` [Haloprogin], the cell viability was 104%.

same assay, conditions: 1000 nM; 72 h

First: O=C(Cc1cccc(OC(F)(F)F)c1)Nc1ccc(CCCCc2nnc(NC(=O)Cc3ccccn3)s2)nn1 [CB-839]
Second: O=C(/C=C/c1cccnc1)NCCCCC1CCN(C(=O)c2ccccc2)CC1 [Daporinad]
The cell viability of the first is higher: 59.8% for the first, 0.00943% for the second.

Compared with `Nc1ccn([C@@H]2O[C@H](CO)[C@@H](O)C2(F)F)c(=O)n1` [Gemcitabine], `O=c1[nH]c(=O)n([C@H]2C[C@H](O)[C@@H](CO)O2)cc1I` [Idoxuridine] is higher in cell viability: 0.053% for the first, 15.6% for the second.

Work on `Clc1cc(Cl)c(OCC#CI)cc1Cl` [Haloprogin] yielded a cell viability of 71.5%.

same assay, conditions: 10000 nM; 72 h

Compared with `O=C(Cc1cccc(OC(F)(F)F)c1)Nc1ccc(CCCCc2nnc(NC(=O)Cc3ccccn3)s2)nn1` [CB-839], `O=C(/C=C/c1cccnc1)NCCCCC1CCN(C(=O)c2ccccc2)CC1` [Daporinad] is lower in cell viability: 18.5% for the first, 0.321% for the second.

Going from `Nc1ccn([C@@H]2O[C@H](CO)[C@@H](O)C2(F)F)c(=O)n1` [Gemcitabine] to `O=c1[nH]c(=O)n([C@H]2C[C@H](O)[C@@H](CO)O2)cc1I` [Idoxuridine], the cell viability rises from -0.136% to 1.22%.

`Clc1cc(Cl)c(OCC#CI)cc1Cl` [Haloprogin] was tested, and the cell viability was 0.185%.

tested on: HEL; test: as above; settings: 1 nM; 72 h
Method in brief: as §1

Compared with `O=C(Cc1cccc(OC(F)(F)F)c1)Nc1ccc(CCCCc2nnc(NC(=O)Cc3ccccn3)s2)nn1` [CB-839], `O=C(/C=C/c1cccnc1)NCCCCC1CCN(C(=O)c2ccccc2)CC1` [Daporinad] is lower in cell viability: 117% for the first, 85.7% for the second.

Compared with `Nc1ccn([C@@H]2O[C@H](CO)[C@@H](O)C2(F)F)c(=O)n1` [Gemcitabine], `O=c1[nH]c(=O)n([C@H]2C[C@H](O)[C@@H](CO)O2)cc1I` [Idoxuridine] is lower in cell viability: 105% for the first, 93.8% for the second.

`Clc1cc(Cl)c(OCC#CI)cc1Cl` [Haloprogin] gave a cell viability of 103%.

same assay, conditions: 10 nM; 72 h

First: O=C(Cc1cccc(OC(F)(F)F)c1)Nc1ccc(CCCCc2nnc(NC(=O)Cc3ccccn3)s2)nn1 [CB-839]
Second: O=C(/C=C/c1cccnc1)NCCCCC1CCN(C(=O)c2ccccc2)CC1 [Daporinad]
The cell viability of the first is higher: 85.6% for the first, 2.97% for the second.

Going from `Nc1ccn([C@@H]2O[C@H](CO)[C@@H](O)C2(F)F)c(=O)n1` [Gemcitabine] to `O=c1[nH]c(=O)n([C@H]2C[C@H](O)[C@@H](CO)O2)cc1I` [Idoxuridine], the cell viability rises from 1.42% to 90.5%.

In the case of `Clc1cc(Cl)c(OCC#CI)cc1Cl` [Haloprogin], the cell viability is reported as 101%.

same assay, conditions: 100 nM; 72 h

First: O=C(Cc1cccc(OC(F)(F)F)c1)Nc1ccc(CCCCc2nnc(NC(=O)Cc3ccccn3)s2)nn1 [CB-839]
Second: O=C(/C=C/c1cccnc1)NCCCCC1CCN(C(=O)c2ccccc2)CC1 [Daporinad]
The cell viability of the first is higher: 99.3% for the first, 1.75% for the second.

First: Nc1ccn([C@@H]2O[C@H](CO)[C@@H](O)C2(F)F)c(=O)n1 [Gemcitabine]
Second: O=c1[nH]c(=O)n([C@H]2C[C@H](O)[C@@H](CO)O2)cc1I [Idoxuridine]
The cell viability of the first is lower: -0.289% for the first, 92% for the second.

`Clc1cc(Cl)c(OCC#CI)cc1Cl` [Haloprogin] was tested, and the cell viability was 106%.
